Experimental findings from patent publication US20050080045A1, “Composition comprising dextrinsulfate for the treatment of sexual transmitted diseases (std)” (priority 2001, published 2005) are described below.

The subject of assay [1] is Chlamydia trachomatis Sa2f strain. Nature of the assay: Chlamydia trachomatis cell culture assay (inclusion bodies in McCoy cell monolayers). Type of assay: cell-based. The method, then: McCoy cell monolayers were prepared on coverslips in plastic Bijoux. Cells were infected with Chlamydia trachomatis either alone or in the presence of dextrin sulphate. The Sa2f strain of C. trachomatis was used. Sa2f, which causes lymphogranuloma venereum, is similar to C. trachomatis. It is a heavily passaged laboratory strain which can infect McCoy cells without the need for spinning (for most strains of C. trachomatis, it is necessary to spin the cells onto the monolayers in the presence of cyclohexamide in order for infection of the monolayers to occur).
After incubation, coverslips were fixed and stained for C. trachomatis. The number of inclusion bodies per coverslip was estimated by fluorescence microscopy.

Assay [2] concerns HSV-1. Nature of the assay: HSV plaque reduction assay in Vero cells (HSV-1). Type of assay: cell-based, Herpes Simplex Virus. As to conditions: mean of two determinations. The procedure: (§1) Dextrin sulphate was added to the cell culture and then removed following an incubation period. Virus was then added as it is thought that dextrin sulphate attaches to cell receptors, thereby blocking subsequent viral entry. Following incubation with virus, dextrin sulphate in carboxylmethyl cellulose was added. This medium was used to form a gel layer to prevent any intracellular virus (that has bypassed the dextrin sulphate-cell receptor blocking interaction) from further infecting other cells.
(§2) • (i) Seed 24 well cell culture plates with Vero cells (2×10^5 cells/ml/well). Prepare one plate per virus plus 2 plates for controls. • (ii) Grow cells to confluency overnight at 37° in 5% CO2. • (iii) Dilute virus as calculated to give about 100 plaques per well, a minimum volume of 5 ml per plate.
Plate Layout. Dextrin sulphate (D.S.) concentrations are in mg per ml.
• (iv) Pipette cell medium off all wells except the cell control wells. • (v) Inoculate the appropriate well with 1 ml Dextrin sulphate made up in Minimum Essential Medium as per above layout. • (vi) Incubate the plate at 37° C. in CO2 incubator for 1 hour. • (vii) Remove Dextrin sulphate. • (viii) Inoculate 200 μl of virus dilution per well. • (ix) Incubate the plate at 37° C. in CO2 incubator for 1 hour. • (x) Add 1 ml Dextrin sulphate in CMC to appropriate wells, incubate the plates at 37° C. in CO2 incubator for 60 hours. • (xi) Fix with 10% formalin in PBS by topping up the wells, leave for a minimum of 1 hour. • (xii) Decant formalin, rinse plate in water, stain with crystal violet for 5-10 mins, rinse and drain. Leave plates to dry before counting.
(xiii) Count plaques, calculate IC50 by Grafit.
In general terms: Plaque reduction counts the foci of infection that form in a cell layer.

Assay [3] relates to HSV-2. Kind of assay: HSV plaque reduction assay in Vero cells (HSV-2). Type of assay: cell-based, Herpes Simplex Virus. As to conditions: mean of two determinations. The procedure: as §1, §2
Plate Layout. Dextrin sulphate (D.S.) concentrations are in mg per ml. […]

With dextrin sulphate, in assay [1] (Sa2f preincubated with dextrin sulphate before infecting the cell line), the “Inhibition (Expt. 2.1.1)” value is reported as “inhibition by dextrin”. Further, the “Inhibition (Expt. 2.1.2)” value in assay [1] (dextrin sulphate preincubated with the cell line before infection with Sa2f) is on record as “inhibition by dextrin”. In addition, the “course of inhibitory activity (Expt. 2.3.1)” value in assay [1] (larger infecting doses of Sa2f (400 inclusion bodies in 30 fields)) was “plateaued off”. In addition, the “course of inhibitory activity (Expt. 2.3.2)” value in assay [1] (lower infecting doses (40 inclusion bodies in 30 fields)) is on record as “plateaued off”. For the same substance, the “inhibition (Expt. 2.3.2)” value in assay [1] (lower infecting doses (40 inclusion bodies in 30 fields), dextrin sulphate 1000 μg/ml) was “b) 80-90% inhibition”. The “Inhibition (Expt. 2.3)” value in assay [1] (use of different infecting doses of Sa2f) is recorded as “inhibition by dextrin”. Moreover, the concentration for half-maximal inhibition (IC50) in assay [2] (DM-21, Laboratory HSB-1 ACV resistant) amounted to 910 µg/mL; in assay [2] (HSV-1 ACV resistant), 2770 µg/mL; in assay [2] (HSV-1 ACV sensitive) it was 1130 µg/mL; in assay [2] (SC-16, Laboratory HSV-1 ACV sensitive) it was 330 µg/mL; in assay [3] (HSV-2 ACV resistant), 4 µg/mL; in assay [3] (HSV-2 ACV sensitive) it was 110 µg/mL.

Usually IC50 stands for the midpoint of a concentration-inhibition curve. A higher IC50 goes with lower potency.
